The values below are quoted from earlier work in article PMC3723878 (PLoS ONE, 2013).

A word on the pKD: it is −log10 of the KD, conventionally taken in molar units.

This series deals with T1, α1A-AR (Homo sapiens, UniProt P35348).
T1 sequence (P35348 1-466): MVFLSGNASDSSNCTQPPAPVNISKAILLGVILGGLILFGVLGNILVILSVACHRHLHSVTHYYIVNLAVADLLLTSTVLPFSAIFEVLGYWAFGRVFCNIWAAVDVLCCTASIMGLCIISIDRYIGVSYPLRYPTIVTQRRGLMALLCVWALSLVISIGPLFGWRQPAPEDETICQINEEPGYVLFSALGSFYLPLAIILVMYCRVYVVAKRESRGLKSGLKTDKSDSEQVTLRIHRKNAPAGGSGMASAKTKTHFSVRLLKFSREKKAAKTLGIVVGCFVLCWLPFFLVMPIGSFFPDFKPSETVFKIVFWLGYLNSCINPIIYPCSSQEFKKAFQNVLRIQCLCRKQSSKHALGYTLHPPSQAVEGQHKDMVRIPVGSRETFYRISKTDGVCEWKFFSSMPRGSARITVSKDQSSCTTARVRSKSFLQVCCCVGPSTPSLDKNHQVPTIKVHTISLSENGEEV
Further details: expressed in transfected cells; method as in PMID 20978120. Conditions: CHO cells used for Ca^2+ release experiments; cited from earlier work.

Take `O=C1c2ccccc2CCC1CNCCc1ccc(O)c([125I])c1` (stereo not shown) [125I-HEAT]: the negative logarithm of the KD (pKD) is given as 9.2±0.09.
